Experimental data taken from article PMC12035805, “A Water-Soluble Aggregation-Induced Emission Photosensitizer with Intrinsic Antibacterial Activity as an Antiplanktonic and Antibiofilm Therapeutic Agent” (Journal of Medicinal Chemistry, 2025).
Where two headings read alike, the source gives them in different places.

Assays:
[1] = Hemolysis of human erythrocytes; type: cell-based; details: 200 μM compound, 1 h, 37 °C
Method: (§1) The human erythrocyte concentrate was prepared according to the kit manual from the Biomaterial Hemolytic Assay Kit (Hemoscan). After the human erythrocytes had been washed and diluted with manufacture buffer, 100 μL of erythrocytes (10%) were added into 100 μL of various concentrations of compounds in PBS. 1% of Triton X (1%) was the positive control, while PBS was the negative control. The erythrocytes were then gently mixed with the TPA compounds and further incubated for an hour at 37 °C. After that, the erythrocytes were centrifuged (1000 rpm, 5 min), and 20 μL of supernatant was added to 180 μL of PBS in a 96-well plate. The optical density at 380, 415, and 450 nm was measured by a plate reader. The final OD value of the compounds was calculated as (2 × OD415) – (OD450 + OD380) where OD380, OD415, and OD450 are the optical density of the solution at 380, 415, and 450 nm, respectively. The hemolysis rates of the compounds were calculated as (ODcompound – ODPBS)/(ODTritonX – ODPBS) × 100% where ODcompound, ODPBS, and ODTritonX are the final OD values of the erythrocytes mixed with TPA compounds, PBS, and 1% Triton X, respectively. The experiment was performed in triplicate.

human erythrocytes = experiment: Hemolysis of human erythrocytes; type: cell-based
Method: as §1

[2] = test system: P. aeruginosa (ATCC 27853); experiment: MIC assay (broth microdilution, CLSI), without light; type: cell-based; details: Pseudomonas aeruginosa, ATCC27853, light or radiation study
Method: (§2) The MIC assays of TPA-1 were conducted according to the broth microdilution methods described in the Clinical and Laboratory Standards Institute (CLSI) standard. A single colony of S. aureus (ATCC 29213), methicillin-resistant S. aureus (BAA 41), or P. aeruginosa (ATCC 27853) on an LB agar plate was picked and suspended in Mueller–Hinton Broth (MHB). The bacterial culture was grown overnight at 37 °C. The next day, the bacteria culture was diluted 100 times in fresh MHB and grown to the mid log phase. Bacteria in the mid log phase were further diluted to 5 × 10^6 CFU/mL in cation-adjusted MHB (S. aureus) or MHB (P. aeruginosa). Ten μL of the diluted bacteria were added to a 96-well plate containing 90 μL of serial diluted TPA-1 in the corresponding medium. The plate was incubated overnight at 37 °C. The MICs of the TPA compounds were the concentrations at which no apparent bacteria were observed by the naked eye. Different concentrations of LTA were also added to examine the change in MIC values of TPA-1 against S. aureus. The experiments were conducted in triplicate.

S. aureus (ATCC 29213) = experiment: as above; type: cell-based; details: Staphylococcus aureus, ATCC29213, light or radiation study; read-out: MIC against ATCC 29213 Staphylococcus aureus without light irradiation
Method: as §2

[3] = test system: methicillin-resistant S. aureus (BAA 41); experiment: as above; type: cell-based; details: Staphylococcus aureus
Method: as §2

S. aureus = experiment: Time-kill kinetics against S. aureus; type: cell-based, Staphylococcus aureus; details: 2 × MIC (6.25 μM), dark
Method: Similar to the MIC assay, the overnight culture of S. aureus incubated under darkness was diluted in fresh MHB and grown to the mid log phase. The S. aureus was then diluted to 1 × 10^6 CFU/mL in cation-adjusted MHB. Three mL of diluted S. aureus was transferred into a 15 mL culture tube. 2 × MIC and 4 × MIC of TPA-1 was added into the bacterial culture and incubated under darkness for 24 h. 2 × MIC of vancomycin and PBS were taken as the positive and negative controls, respectively. At time 0, 0.5, 1, 2, 4, 6, 8, and 24 h, 20 μL of the bacteria culture was taken out. The bacteria were serially diluted, and the number of viable bacteria was recorded using the plate counting method. The experiment was performed in triplicate.

S. aureus mature biofilm = S. aureus mature biofilm eradication assay in the dark; type: cell-based, Staphylococcus aureus; details: 24 h
Method: For biofilm eradication assay, overnight culture of S. aureus in TSB under darkness was diluted to 1 × 10^5 CFU/mL in TSB (with 1% glucose). 100 μL of the diluted culture was transferred to each well of a 96-well plate. The plate was kept at 37 °C for 24 h under darkness to form mature biofilms. The medium was removed, and the biofilms were washed with 200 μL of PBS (3 times). 100 μL of the premixed TPA-1 solutions in TSB (with 1% glucose) were added to the wells. The plate was further incubated for 24 h under darkness and subjected to the crystal violet assay as stated in the biofilm inhibition assay. The biofilm survival rate (%) was calculated as (ODTPA-1 – ODblank)/(ODmedium – ODblank) × 100% where ODTPA-1, ODmedium, and ODblank were the absorbances of the wells with bacteria treated TPA-1, with bacteria without treatment and with medium only, respectively. The experiment was performed in triplicate.

[4] = Light toxicity on HFF-1 cells (MTT after PDT); type: cell-based; details: human, 600 nm light irradiation for 45 min
Method: HFF-1 cells were seeded in a 96-well plate with a density of 10,000 cells/well for 12 h at 37 °C in darkness. Different concentrations of TPA-1 were added to the cell culture medium and incubated for 20 min at 37 °C in darkness. The cells were then incubated in the dark or irradiated by 600 nm light for 45 min. The cell viability was then evaluated using the MTT assay, which was described in the cytotoxicity assay.

Structure (SMILES): C#CCC[n+]1c(/C=C/c2ccc(-c3ccc(N(c4ccc(OCCC[N+](C)(C)C)cc4)c4ccc(OCCC[N+](C)(C)C)cc4)cc3)s2)sc2ccccc21.[Br-].[Br-].[Br-] [TPA-1]
- hemolysis at 1 h, 200 µM [1]: < 2%
- HC50 (human erythrocytes): > 200 µM
- MIC ([2]; read-out: MIC against ATCC 27853 Pseudomonas aeruginosa without light irradiation): 100 µM
- MIC ([2]; without light irradiation, read-out: MIC against P. aeruginosa (ATCC 27853)): > 100 µM
- MIC (S. aureus (ATCC 29213)): 3.12 µM
- MIC ([3]; ATCC BAA-41 / BAA-41, light or radiation study, read-out: MIC against ATCC BAA41 Methicillin-resistant Staphylococcus aureus without light irradiation): 3.12 µM
- MIC ([3]; BAA41, light or radiation study, read-out: MIC against methicillin-resistant S. aureus (BAA 41)): 3.12 µM
- time to completely eradicate S. aureus (S. aureus): ≤ 2 h
- eradication of mature S. aureus biofilms without light (S. aureus mature biofilm): only limited ability to eradicate mature biofilms
- viability at 45 min, 40 µM [4]: > 90%
